Test: xn = mol fraction of the nth substance listed
Details: 101 kPa, Liquid; for speed of sound: Sing-around technique in a fixed-path interferometer; for mass density: Vibrating tube method

CC(C)(C)Cl [2-chloro-2-methylpropane] + CCCCCCC
Details | mass density, 283.15 K [kg/m3] | mass density, 298.15 K [kg/m3] | mass density, 313.15 K [kg/m3] | speed of sound, 283.15 K [m/s] | speed of sound, 298.15 K [m/s] | speed of sound, 313.15 K [m/s]
x2 = 0 | 855.249 | 837.096 | 818.536 | 1046.9 | 983.25 | 919.41
x2 = 0.0519 | 843.365 | 825.671 | 807.559 | 1053 | 989.06 | 925.62
x2 = 0.1021 | 832.352 | 815.034 | 797.321 | 1059 | 995.16 | 931.82
x2 = 0.2015 | 811.803 | 795.208 | 778.248 | 1071.6 | 1007.9 | 944.63
x2 = 0.3006 | 792.846 | 776.886 | 760.618 | 1085.1 | 1021.5 | 957.98
x2 = 0.3997 | 775.339 | 759.908 | 744.157 | 1099.1 | 1035.7 | 972.04
x2 = 0.5027 | 758.514 | 743.587 | 728.394 | 1114.5 | 1051.1 | 987.29
x2 = 0.6011 | 743.606 | 729.156 | 714.479 | 1129.7 | 1066 | 1002.2
x2 = 0.7014 | 729.346 | 715.392 | 701.195 | 1145.5 | 1081.5 | 1017.8
x2 = 0.8007 | 716.295 | 702.832 | 689.124 | 1161.5 | 1097.1 | 1033.3
x2 = 0.8966 | 704.437 | 691.409 | 678.136 | 1177.4 | 1113.2 | 1049.5
x2 = 0.9518 | 697.935 | 685.122 | 672.064 | 1187 | 1122.5 | 1058.7

From the NIST ThermoML archive (doi:10.1016/j.jct.2010.06.008)
